We go through eight compounds from PubChem BioAssay (NCI).

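Assay format: 96-well plates, 48-hour exposure. TGI denotes the concentration required for complete inhibition of growth.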 A value given as a limit tells only on which side of the number the result lay.

Test systems include CAKI-1 renal; SK-MEL-28 melanoma; HCT-116 colon; RPMI-8226 leukemia; OVCAR-5 ovarian; NCI-H23 lung; SF-268 CNS; SN12C renal; CCRF-CEM leukemia; SK-MEL-2 melanoma; ACHN renal; SR leukemia; NCI/ADR-RES ovarian; OVCAR-3 ovarian; HOP-92 NSCLC; MDA-MB-231 breast; NCI-H460 lung; MDA-MB-435.
Assay in all cases: growth of human tumour cells (NCI), 48 h

As for `O=C(/C=C/c1csc(-c2ccccc2)n1)NCc1ccc(C(=O)NCCc2ccccc2)cc1`, the TGI in the assay with CAKI-1 renal is 50.3 µM; in the assay with SK-MEL-28 melanoma it was greater than 100 µM; in the assay on HCT-116 colon, greater than 100 µM; in the assay with RPMI-8226 leukemia it was greater than 100 µM; in the assay on OVCAR-5 ovarian it was greater than 100 µM; in the assay on NCI-H23 lung, greater than 100 µM. The TGI in the assay on SF-268 CNS, in the assay on SN12C renal, in the assay with CCRF-CEM leukemia, in the assay on SK-MEL-2 melanoma, in the assay with ACHN renal and in the assay on SR leukemia was greater than 100 µM each time. The TGI in the assay on NCI/ADR-RES ovarian is greater than 100 µM; in the assay on OVCAR-3 ovarian, greater than 100 µM; in the assay with HOP-92 NSCLC it was 36.8 µM; in the assay with MDA-MB-231 breast, 55.6 µM; with NCI-H460 lung, greater than 100 µM; in the assay on MDA-MB-435, greater than 100 µM.

In the case of `N=c1oc2cc(O)ccc2cc1C(=O)NCc1ccccc1`, the TGI with CAKI-1 renal was 69.7 µM; in the assay with SK-MEL-28 melanoma it was greater than 100 µM; in the assay with HCT-116 colon it was 71.3 µM; in the assay with RPMI-8226 leukemia it was 39.9 µM; in the assay with OVCAR-5 ovarian, greater than 100 µM; with NCI-H23 lung, 58.7 µM. In addition, the TGI in the assay with SF-268 CNS was 76.3 µM; in the assay with SN12C renal, 48.8 µM; with CCRF-CEM leukemia it was 45 µM; in the assay on SK-MEL-2 melanoma, 34.2 µM; in the assay on ACHN renal, greater than 100 µM; in the assay on SR leukemia, 67 µM. The TGI was 53.5 µM in the assay with NCI/ADR-RES ovarian; 57.9 µM with OVCAR-3 ovarian; 65.5 µM in the assay on MDA-MB-231 breast; greater than 100 µM with NCI-H460 lung; 58.3 µM in the assay with MDA-MB-435.

As for `CCOC(=O)C1=[N+]([O-])OC2=C(O)CCCC21` (stereo unspecified), the TGI in the assay with CAKI-1 renal, in the assay on SK-MEL-28 melanoma, in the assay on HCT-116 colon, in the assay with RPMI-8226 leukemia, in the assay with OVCAR-5 ovarian and in the assay on NCI-H23 lung was greater than 100 µM in each case. In addition, the TGI in the assay with SF-268 CNS, in the assay on SN12C renal, with CCRF-CEM leukemia, in the assay on SK-MEL-2 melanoma, in the assay with ACHN renal and in the assay on SR leukemia was greater than 100 µM throughout. Further, the TGI in the assay on NCI/ADR-RES ovarian, in the assay on OVCAR-3 ovarian, in the assay with HOP-92 NSCLC, in the assay on MDA-MB-231 breast, in the assay with NCI-H460 lung and with MDA-MB-435 was greater than 100 µM each time.

As for `O=C(/C=C(\O)c1ccccc1)C(=O)NNc1ccc([N+](=O)[O-])cc1[N+](=O)[O-]`, the TGI in the assay with CAKI-1 renal came out at 43.1 µM; with SK-MEL-28 melanoma, 60.8 µM; in the assay on HCT-116 colon it was 27.4 µM; in the assay with RPMI-8226 leukemia it was 82.4 µM; with OVCAR-5 ovarian, 58.7 µM; in the assay on NCI-H23 lung it was 47.2 µM. Further, the TGI in the assay on SF-268 CNS is 37.8 µM; with SN12C renal, 31.8 µM; with CCRF-CEM leukemia, 43.5 µM; with SK-MEL-2 melanoma, greater than 100 µM; in the assay with ACHN renal, 66.5 µM; in the assay on SR leukemia, 43.6 µM. In addition, the TGI is 36.6 µM in the assay on NCI/ADR-RES ovarian, 67.6 µM with MDA-MB-231 breast, 40.2 µM in the assay on NCI-H460 lung and greater than 100 µM with MDA-MB-435.

Regarding `NC(=O)N=C(N(Cc1ccccc1)Cc1ccccc1)N(Cc1ccccc1)Cc1ccccc1`, the TGI with CAKI-1 renal, with SK-MEL-28 melanoma, in the assay with HCT-116 colon, with RPMI-8226 leukemia, in the assay with OVCAR-5 ovarian and in the assay on NCI-H23 lung was greater than 100 µM throughout. The TGI with SF-268 CNS, with SN12C renal, in the assay with CCRF-CEM leukemia, in the assay with SK-MEL-2 melanoma, in the assay with ACHN renal and with SR leukemia was greater than 100 µM in each case. Moreover, the TGI in the assay with NCI/ADR-RES ovarian was greater than 100 µM; in the assay on OVCAR-3 ovarian it was greater than 100 µM; in the assay with HOP-92 NSCLC, greater than 64.8 µM; with MDA-MB-231 breast, greater than 100 µM; with NCI-H460 lung it was greater than 100 µM; in the assay with MDA-MB-435, greater than 100 µM.

On to `COc1ccc(/C=C2\NC(=S)N(CN3CCCCC3)C2=O)cc1`, for which the TGI was greater than 100 µM in the assay on SK-MEL-28 melanoma; greater than 100 µM in the assay on HCT-116 colon; greater than 100 µM with RPMI-8226 leukemia; greater than 100 µM in the assay on OVCAR-5 ovarian; greater than 100 µM with NCI-H23 lung; 50.4 µM in the assay on SF-268 CNS. Moreover, the TGI with SN12C renal, with CCRF-CEM leukemia, with SK-MEL-2 melanoma, in the assay with ACHN renal, in the assay on SR leukemia and in the assay on NCI/ADR-RES ovarian was greater than 100 µM throughout. In addition, the TGI with OVCAR-3 ovarian, with HOP-92 NSCLC, in the assay with MDA-MB-231 breast and in the assay on MDA-MB-435 was greater than 100 µM in each case.

`CC(=O)N1C(=O)/C(=C\C(=O)c2ccc([N+](=O)[O-])cc2)c2ccccc21`: the TGI in the assay with CAKI-1 renal was 41.2 µM; in the assay on HCT-116 colon it was 37.8 µM; in the assay with OVCAR-5 ovarian, greater than 100 µM; in the assay with NCI-H23 lung it was 88.7 µM; in the assay with SF-268 CNS, 49.2 µM; in the assay on SN12C renal it was 35 µM. The TGI was 16.9 µM in the assay with CCRF-CEM leukemia; greater than 100 µM in the assay with SK-MEL-2 melanoma; 29.6 µM in the assay on ACHN renal; 20.3 µM in the assay with SR leukemia; greater than 100 µM in the assay with NCI/ADR-RES ovarian; 32.2 µM in the assay with OVCAR-3 ovarian. Moreover, the TGI in the assay with MDA-MB-231 breast is 84.5 µM; with NCI-H460 lung, 39.9 µM; in the assay on MDA-MB-435, 61.2 µM.

Regarding `NC(=O)NNc1nc2ccccc2c(=O)n1NC(=O)C(=O)Nc1ccc(Cl)cc1Cl`, the TGI in the assay with CAKI-1 renal, in the assay with SK-MEL-28 melanoma, in the assay with HCT-116 colon, in the assay on RPMI-8226 leukemia, in the assay on OVCAR-5 ovarian and in the assay on NCI-H23 lung was greater than 100 µM throughout. In addition, the TGI in the assay with SF-268 CNS, in the assay with SN12C renal, with CCRF-CEM leukemia, with SK-MEL-2 melanoma, in the assay on ACHN renal and with SR leukemia was greater than 100 µM throughout. The TGI in the assay with NCI/ADR-RES ovarian, in the assay on OVCAR-3 ovarian, with HOP-92 NSCLC, in the assay with MDA-MB-231 breast, in the assay with NCI-H460 lung and in the assay on MDA-MB-435 was greater than 100 µM each time.
